Results taken from patent US20100227853A1, “INHIBITORS OF CYCLIC AMP PHOSPHODIESTERASES” (Trustees of Boston College, priority 2008, published 2010).

Tests used:
[1] = molecular target: T1, PDE4D2-CAT (Homo sapiens, UniProt Q08499); experiment: in vitro enzyme assay, catalytic fragment of PDE4D2 (residues 86-413); assay type: biochemical
T1 construct: 86-413; made in house; host or cells: E. coli

[2] = molecular target: T2, PDE7B (Rattus norvegicus, UniProt A0A0G2JXU0); experiment: in vitro enzyme assay of PDE7B activity in extracts from rat pulmonary endothelial cells; assay type: biochemical
T2 construct: endogenous in cells; host or cells: rat pulmonary endothelial cells (extract)
T2 sequence (A0A0G2JXU0 1-446): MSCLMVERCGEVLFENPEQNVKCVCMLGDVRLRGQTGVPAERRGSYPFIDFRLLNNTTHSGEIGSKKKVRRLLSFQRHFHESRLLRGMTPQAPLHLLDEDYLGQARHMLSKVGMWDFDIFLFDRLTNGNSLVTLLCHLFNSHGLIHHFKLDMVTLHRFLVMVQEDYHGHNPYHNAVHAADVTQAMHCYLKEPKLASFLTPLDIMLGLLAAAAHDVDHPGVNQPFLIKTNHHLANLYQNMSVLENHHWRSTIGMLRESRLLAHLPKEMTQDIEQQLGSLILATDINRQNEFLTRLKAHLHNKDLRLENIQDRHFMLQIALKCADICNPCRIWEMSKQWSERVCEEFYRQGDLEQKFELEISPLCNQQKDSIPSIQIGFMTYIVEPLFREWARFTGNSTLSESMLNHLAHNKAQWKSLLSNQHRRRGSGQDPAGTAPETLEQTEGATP
Description: FIG. 13 is the in vitro enzyme assays of PDE7B activity in extracts made from rat pulmonary endothelial cells.

[3] = test system: U937 cells; experiment: TNF alpha release by LPS-treated U937 cells; assay type: cell-based; settings: for TNF alpha, % vehicle control: 10 uM cmpd, 0 uM BC30
[4] = test system: Lymphoma cells; experiment: in vitro assay on lymphoma cells (24 hours, Hoechst stain, fsc/ssc); assay type: cell-based
Description: FIGS. 6A and 6B show the in vitro assay of BC54 action. Lymphoma cells are treated with the drug for 24 hours, then stained with Hoechst dye. The cells form a clearly defined population on the fsc/ssc dot plot. Vincristine treatment was used as a positive control. […] BC54 is referred to in the figure as S54.

[5] = test system: CLL; experiment: CLL assay; assay type: cell-based
[6] = test system: PDE4A, PDE4B, PDE4D, PDE7A, PDE7B, PDE8A, PDE3A; experiment: Summary of PDE inhibitor profile
[7] = molecular target: T3, PDE7B (Homo sapiens, UniProt Q9NP56); experiment: in vitro enzyme assay, PDE7B catalytic domain from E. coli, hydrolysis of cAMP to AMP; assay type: biochemical; set-up: The PDE7B catalytic domain was expressed in and purified from E. coli; made in house; host or cells: E. coli; settings: for IC50: AC200 = [Compound] that doubles PDE activity, read-out: IC50 (or AC200), PDE7B
Description: The PDE7B catalytic domain was expressed in and purified from E. coli and tested for activity in an in vitro enzyme assay, measuring the hydrolysis of cAMP to AMP. Four dilutions of the enzyme preparation were tested at various compound concentrations (X axis). The percent of cAMP hydrolyzed is plotted on the Y axis.
Target sequence in this assay (Q9NP56 97-420 limits assumed, species assumed): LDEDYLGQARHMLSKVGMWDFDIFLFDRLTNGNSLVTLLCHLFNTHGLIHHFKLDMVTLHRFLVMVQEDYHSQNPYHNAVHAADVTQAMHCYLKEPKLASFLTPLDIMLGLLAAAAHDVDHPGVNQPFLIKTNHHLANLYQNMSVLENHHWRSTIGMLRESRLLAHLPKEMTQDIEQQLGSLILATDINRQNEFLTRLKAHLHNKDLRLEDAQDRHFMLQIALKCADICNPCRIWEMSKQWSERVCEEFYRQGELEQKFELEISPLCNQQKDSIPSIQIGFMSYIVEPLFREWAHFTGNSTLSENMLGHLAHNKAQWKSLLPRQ

[8] = molecular target: T3, PDE7B; experiment: 5FOA growth assay in fission yeast strain expressing PDE7B; assay type: cell-based; set-up: targets used in the assays are full-length proteins (as opposed to simply the catalytic domain); expressed in transfected cells; host or cells: Schizosaccharomyces pombe
Description: PDE inhibition allows growth in 5FOA medium as measured by optical density after 48 hours incubation at 30° C. Compound BC12 and six structural analogs were tested for growth stimulation.
Cells were pregrown in EMM medium [MP Biomedicals (Solon, Ohio), 3% glucose, filter-sterilized to avoid carmelization, which would introduce variability into the optical density of the medium] containing from 0 mM to 2.5 mM cAMP (or either 0.5 mM or 1.0 mM cGMP). This was to repress expression of the fbp1-ura4 reporter prior to exposure of cells to 5FOA medium. Cells were grown at 30° C. to exponential phase (approximately 10^7 cells/ml). Cells were collected by centrifugation and resuspended in 5FOA medium, and 25 μl were transferred to 384-well microtiter dishes (untreated, with flat clear bottoms) that had been pre-filled with 25 μl 5FOA medium and pre-pinned with 100 nl of compounds (stock solutions were generally 10 mM). Starting cell concentrations ranged from 0.5×10^5 to 4×10^5 cells/ml depending on the screening strain. […] Other positive control dishes contained 5 mM cAMP in the 5FOA medium for PDEs that lack appropriate control compounds. Cultures were grown for 48 hours at 30° C., sealed in an airtight container with moist paper towels to prevent evaporation. Optical densities (OD600) of cultures were measured using a microplate reader. Bioinformatic analysis of the results to determine composite Z scores was performed as previously described (1, 3).
Target sequence in this assay (Q9NP56 whole entry, species assumed, the tested form may be a part): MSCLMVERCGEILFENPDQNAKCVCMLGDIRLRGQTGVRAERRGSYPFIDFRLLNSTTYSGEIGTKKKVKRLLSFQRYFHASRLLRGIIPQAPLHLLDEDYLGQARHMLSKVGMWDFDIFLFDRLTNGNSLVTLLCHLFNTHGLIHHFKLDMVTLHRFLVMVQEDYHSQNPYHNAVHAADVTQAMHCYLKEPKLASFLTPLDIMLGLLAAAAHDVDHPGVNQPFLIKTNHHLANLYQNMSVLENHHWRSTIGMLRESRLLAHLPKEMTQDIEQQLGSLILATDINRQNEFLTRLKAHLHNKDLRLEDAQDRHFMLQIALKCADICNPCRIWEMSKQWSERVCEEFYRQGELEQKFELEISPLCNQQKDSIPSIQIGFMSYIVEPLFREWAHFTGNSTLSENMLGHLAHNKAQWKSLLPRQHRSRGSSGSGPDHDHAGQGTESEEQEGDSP

[9] = molecular target: T4, PDE7A (Homo sapiens, UniProt Q13946); experiment: 5FOA growth assay in fission yeast strain expressing PDE7A; assay type: cell-based; set-up: targets used in the assays are full-length proteins (as opposed to simply the catalytic domain); expressed in transfected cells; host or cells: Schizosaccharomyces pombe, PDE gene integrated in place of cgs2
T4 sequence (Q13946 whole entry, the tested form may be a part): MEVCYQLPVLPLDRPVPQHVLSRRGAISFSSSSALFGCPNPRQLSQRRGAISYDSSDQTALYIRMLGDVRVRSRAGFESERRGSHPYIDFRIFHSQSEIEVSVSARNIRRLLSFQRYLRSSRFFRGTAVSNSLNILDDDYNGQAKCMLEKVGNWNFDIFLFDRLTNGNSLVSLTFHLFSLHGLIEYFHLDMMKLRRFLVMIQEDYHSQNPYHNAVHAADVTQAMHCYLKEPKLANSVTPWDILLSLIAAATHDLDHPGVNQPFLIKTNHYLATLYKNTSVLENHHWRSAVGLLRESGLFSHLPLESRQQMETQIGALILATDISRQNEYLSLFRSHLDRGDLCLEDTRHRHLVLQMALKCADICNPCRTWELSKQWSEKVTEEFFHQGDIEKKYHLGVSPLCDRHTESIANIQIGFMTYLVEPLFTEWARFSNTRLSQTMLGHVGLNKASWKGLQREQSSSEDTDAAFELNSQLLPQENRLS
Procedure, shortened: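 Fission yeast carrying an fbp1-ura4 reporter were pregrown to exponential phase at 30 °C in EMM with 0–2.5 mM cAMP (or 0.5/1.0 mM cGMP), then moved into 5FOA medium with 100 nl pinned compound (10 mM stocks). Growth was read as OD600 after 48 h at 30 °C and scored as composite Z scores.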

[10] = molecular target: T5, PDE4D2-FL (Homo sapiens, UniProt Q08499); experiment: in vitro enzyme assay, full-length PDE4D2 (residues 1-507); assay type: biochemical; settings: read-out: IC50 (or AC200), PDE4D2-FL
T5 construct: 1-507; made in house; host or cells: E. coli

[11] = molecular target: T4, PDE7A; experiment: in vitro enzyme assay PDE7A; assay type: biochemical; set-up: made in house; host or cells: E. coli; settings: for IC50: E. coli expressed and purified enzyme, read-out: IC50 (or AC200), PDE7A
[12] = molecular target: PDE4A (Homo sapiens, UniProt P27815); experiment: in vitro enzyme assay PDE4A (Table 7); assay type: biochemical; settings: 2 micromolar compound; read-out: percent of PDE activity present, PDE4A
Sequence of PDE4A (P27815 whole entry, species assumed): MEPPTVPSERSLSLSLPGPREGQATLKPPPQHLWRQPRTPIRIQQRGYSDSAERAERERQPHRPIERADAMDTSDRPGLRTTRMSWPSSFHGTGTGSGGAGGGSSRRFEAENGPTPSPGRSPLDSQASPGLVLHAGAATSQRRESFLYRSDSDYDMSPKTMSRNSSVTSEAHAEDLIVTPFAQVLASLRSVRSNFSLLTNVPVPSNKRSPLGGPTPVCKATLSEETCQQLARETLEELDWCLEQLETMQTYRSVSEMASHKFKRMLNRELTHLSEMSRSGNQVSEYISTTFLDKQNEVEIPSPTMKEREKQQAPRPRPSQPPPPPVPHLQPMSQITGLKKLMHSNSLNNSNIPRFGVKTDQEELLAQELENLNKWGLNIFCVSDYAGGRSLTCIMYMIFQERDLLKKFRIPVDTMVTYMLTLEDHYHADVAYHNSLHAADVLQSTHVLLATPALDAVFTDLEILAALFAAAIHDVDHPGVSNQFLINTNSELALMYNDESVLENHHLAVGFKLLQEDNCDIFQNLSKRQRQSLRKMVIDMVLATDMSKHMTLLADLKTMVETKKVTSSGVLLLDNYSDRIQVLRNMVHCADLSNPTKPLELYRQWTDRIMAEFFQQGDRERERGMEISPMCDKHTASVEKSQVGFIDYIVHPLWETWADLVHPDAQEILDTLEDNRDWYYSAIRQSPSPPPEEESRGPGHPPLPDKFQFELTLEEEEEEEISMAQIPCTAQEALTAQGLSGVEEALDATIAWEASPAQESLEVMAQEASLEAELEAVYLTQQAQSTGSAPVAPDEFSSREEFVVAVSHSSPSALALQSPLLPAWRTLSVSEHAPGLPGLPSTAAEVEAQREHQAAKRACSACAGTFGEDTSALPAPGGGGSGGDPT

[13] = molecular target: PDE4B (Homo sapiens, UniProt Q07343); experiment: in vitro enzyme assay PDE4B (Table 7); assay type: biochemical; settings: 2 micromolar compound; read-out: percent of PDE activity present, PDE4B
Sequence of PDE4B (Q07343 whole entry, species assumed): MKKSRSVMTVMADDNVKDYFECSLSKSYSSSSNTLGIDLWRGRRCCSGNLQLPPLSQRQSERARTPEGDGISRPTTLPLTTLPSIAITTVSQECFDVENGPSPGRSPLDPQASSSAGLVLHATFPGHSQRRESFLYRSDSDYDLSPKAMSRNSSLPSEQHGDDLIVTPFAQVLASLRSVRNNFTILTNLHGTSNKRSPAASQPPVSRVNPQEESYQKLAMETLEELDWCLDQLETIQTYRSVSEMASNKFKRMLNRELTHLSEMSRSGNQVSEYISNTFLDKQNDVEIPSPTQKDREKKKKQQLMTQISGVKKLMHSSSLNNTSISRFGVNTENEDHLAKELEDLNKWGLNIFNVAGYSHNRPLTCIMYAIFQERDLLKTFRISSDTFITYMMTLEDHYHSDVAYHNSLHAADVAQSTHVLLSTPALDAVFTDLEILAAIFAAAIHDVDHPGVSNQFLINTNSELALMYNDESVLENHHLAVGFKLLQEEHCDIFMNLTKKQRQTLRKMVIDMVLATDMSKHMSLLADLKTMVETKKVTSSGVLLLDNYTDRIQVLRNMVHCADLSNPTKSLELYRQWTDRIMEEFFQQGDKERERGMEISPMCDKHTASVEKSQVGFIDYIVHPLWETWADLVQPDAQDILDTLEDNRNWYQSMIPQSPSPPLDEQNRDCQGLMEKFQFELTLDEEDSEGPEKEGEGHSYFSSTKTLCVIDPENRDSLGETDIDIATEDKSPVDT

[14] = molecular target: PDE4D (Homo sapiens, UniProt Q08499); experiment: in vitro enzyme assay PDE4D (Table 7); assay type: biochemical; settings: 2 micromolar compound; read-out: percent of PDE activity present, PDE4D
Sequence of PDE4D (Q08499 whole entry, the tested form may be a part): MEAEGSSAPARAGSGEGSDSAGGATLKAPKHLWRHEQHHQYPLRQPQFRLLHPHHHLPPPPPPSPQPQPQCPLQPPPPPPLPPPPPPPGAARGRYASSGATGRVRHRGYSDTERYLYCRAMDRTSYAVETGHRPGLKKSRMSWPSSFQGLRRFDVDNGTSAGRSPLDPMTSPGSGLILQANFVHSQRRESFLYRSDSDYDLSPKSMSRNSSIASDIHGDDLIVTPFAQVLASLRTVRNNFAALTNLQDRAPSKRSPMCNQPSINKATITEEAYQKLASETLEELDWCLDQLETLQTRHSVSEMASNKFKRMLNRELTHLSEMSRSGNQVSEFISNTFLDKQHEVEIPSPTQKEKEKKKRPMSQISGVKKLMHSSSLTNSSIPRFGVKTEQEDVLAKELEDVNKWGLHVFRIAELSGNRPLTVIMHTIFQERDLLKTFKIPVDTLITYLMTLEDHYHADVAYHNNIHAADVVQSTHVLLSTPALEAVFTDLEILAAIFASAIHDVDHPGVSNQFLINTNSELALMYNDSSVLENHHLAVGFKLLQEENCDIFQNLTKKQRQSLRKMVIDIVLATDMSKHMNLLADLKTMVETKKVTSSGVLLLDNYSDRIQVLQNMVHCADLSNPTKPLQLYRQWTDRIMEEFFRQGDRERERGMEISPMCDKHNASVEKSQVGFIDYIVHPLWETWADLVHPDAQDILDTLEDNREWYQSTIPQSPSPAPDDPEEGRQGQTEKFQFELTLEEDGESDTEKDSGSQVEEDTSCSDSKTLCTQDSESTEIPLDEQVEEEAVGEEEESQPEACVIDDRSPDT

[15] = molecular target: PDE4B2 (Homo sapiens, UniProt Q07343); experiment: in vitro enzyme assay, E. coli expressed and purified PDE4B2; assay type: biochemical; set-up: targets used in the assays are full-length proteins (as opposed to simply the catalytic domain); settings: read-out: IC50 (or AC200), PDE4B2
Sequence of PDE4B2 (Q07343 1-564 isoform Q07343-2, species assumed): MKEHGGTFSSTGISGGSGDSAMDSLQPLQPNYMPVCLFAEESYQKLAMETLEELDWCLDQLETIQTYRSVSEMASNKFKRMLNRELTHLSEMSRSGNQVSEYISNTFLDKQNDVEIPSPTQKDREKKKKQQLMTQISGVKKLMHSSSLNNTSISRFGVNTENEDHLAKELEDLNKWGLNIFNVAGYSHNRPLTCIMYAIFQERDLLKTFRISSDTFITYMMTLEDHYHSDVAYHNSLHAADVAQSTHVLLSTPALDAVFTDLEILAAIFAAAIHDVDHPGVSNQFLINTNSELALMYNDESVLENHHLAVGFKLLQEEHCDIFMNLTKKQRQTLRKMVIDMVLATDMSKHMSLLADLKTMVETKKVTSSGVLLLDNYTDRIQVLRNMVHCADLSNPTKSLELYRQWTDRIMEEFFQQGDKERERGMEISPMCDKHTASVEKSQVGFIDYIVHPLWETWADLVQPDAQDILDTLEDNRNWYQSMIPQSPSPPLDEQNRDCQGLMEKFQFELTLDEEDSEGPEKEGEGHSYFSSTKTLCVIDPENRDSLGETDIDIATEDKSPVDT

[16] = optical density after 48 hours at 30° C.

T1 sequence (Q08499 388-715): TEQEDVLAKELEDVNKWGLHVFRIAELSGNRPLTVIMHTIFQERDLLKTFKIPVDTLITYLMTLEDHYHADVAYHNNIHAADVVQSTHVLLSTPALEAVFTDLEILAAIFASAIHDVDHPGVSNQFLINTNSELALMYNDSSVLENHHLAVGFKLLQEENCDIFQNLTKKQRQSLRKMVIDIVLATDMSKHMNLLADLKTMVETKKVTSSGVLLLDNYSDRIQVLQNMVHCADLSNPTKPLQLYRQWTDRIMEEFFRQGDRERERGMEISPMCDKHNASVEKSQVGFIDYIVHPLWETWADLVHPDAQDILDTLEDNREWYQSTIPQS

## CN(C)c1ccc(/C=C/C=C2/C(=O)NC(=O)N(c3ccccc3)C2=O)cc1 [BC12]
[1]; 2 uM compound
  PDE4D catalytic domain, 2 uM cpm: 3686 cpm
[1]; 2 micromolar compound, DMSO = 100, read-out: In vitro activation of PDE4D catalytic domain, % activity
  activity at 2 µM: 133%
[2]
  inhibition of PDE7B from pulmonary endothelial cells, in words: potent inhibitor
[2]; KI on PDE7 (PDE7B) from rat pulmonary endothelial cells, cell extracts
  Ki: ~200 nM
[2]; PDE7B, rat pulmonary endothelial cell extracts
  KI lower than that of BRL50481: approximately 100 fold
[3]
  TNF alpha reduction, conclusion in words: shows activity
[4]
  apoptosis of lymphoma cells, in words: apoptosis effect
[5]
  activity in CLL assay, in words: shows activity
[6]
  PDE inhibitor profile, in words: PDE7 inhibitor that appears to activate PDE4D and PDE7B in vitro (not in vivo)
[7]; 2 uM compound
  PDE7B, 2 uM cpm: 2388 cpm
[7]; E. coli-expressed catalytic domain
  effect on cAMP hydrolysis by PDE7B in vitro, in words: increases cAMP hydrolysis
[8]; [16]
  5FOA growth response, PDE7B strain, in words: most potent inhibitor, promoting growth at low micromolar concentrations
[9]; [16]
  5FOA growth response, PDE7A strain, in words: most potent inhibitor, promoting growth at low micromolar concentrations

## Cc1ccc([N+](=O)[O-])cc1S(=O)(=O)N(C)C [BRL50481, reference compound]
[10]
  IC50: > 20000 nM
[11]
  IC50: 200 nM
[7]
  IC50: 18000 nM
[8]; OD600 0.6, read-out: ED50 for 5FOA growth assays, PDE7B
  EC50: 42000 nM
[9]; OD600 0.6, read-out: ED50 for 5FOA growth assays, PDE7A
  EC50: 1300 nM

## Cc1c(C(=O)Nc2ccc(F)cc2F)sc2ncnc(N3CCC(C)CC3)c12 [Compound 58]
[12]
  remaining activity at 2 µM: 31%
[13]
  remaining activity at 2 µM: 16%
[14]
  remaining activity at 2 µM: 31%
[1]; catalytic fragment, AC200 = [Compound] that doubles PDE activity, read-out: IC50 (or AC200), PDE4D2-CAT
  IC50: < 2000 nM
[3]; 3 HOURS
  TNF: 3345 pg/mL
  TNF, % EtOH cntrl: 69.2%
[3]; 20 HOURS
  TNF: 10030 pg/mL
  TNF, % EtOH cntrl: 73.3%
[3]; after 3 h.
  TNF alpha, % vehicle control: 61.2%
[3]; after 20 h.
  TNF alpha, % vehicle control: 53.8%
[11]; 2 micromolar compound, read-out: percent of PDE activity present, PDE7A
  remaining activity at 2 µM: 68%
[11]
  IC50: > 2000 nM
[15]
  IC50: 1500 nM
[7]
  IC50: > 2000 nM
